The nature of data set [1]: Tmax in mouse at 10 mg/kg, ip. The data set is classed as ADME, organism-based. The settings on record: in vivo.
The target of data set [2] is T1, Monoglyceride lipase (Homo sapiens) (UniProt Q99685).
T1 sequence (whole entry): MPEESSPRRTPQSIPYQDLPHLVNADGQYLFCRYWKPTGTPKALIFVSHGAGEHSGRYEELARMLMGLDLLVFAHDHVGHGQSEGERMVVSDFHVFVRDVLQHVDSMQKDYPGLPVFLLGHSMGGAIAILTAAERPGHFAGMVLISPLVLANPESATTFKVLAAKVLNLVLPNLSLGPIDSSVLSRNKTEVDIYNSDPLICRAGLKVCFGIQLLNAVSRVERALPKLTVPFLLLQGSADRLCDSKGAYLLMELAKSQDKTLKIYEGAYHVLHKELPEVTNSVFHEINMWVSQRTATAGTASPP
As to the kind of experiment: Inhibition of MAGL (unknown origin) at 30 uM.

For data set [3], the system named is Mus musculus. As to the kind of experiment: AUC(infinity) in mouse at 10 mg/kg, ip. Further details: dose 10 mg/kg, time infinity, route intraperitoneal. The following applies: in vivo. The data set is classed as ADME, organism-based.
Data set [4] can be described thus: Half life in mouse at 1 mg/kg, iv. Type of data set: ADME, organism-based. The settings on record: in vivo.
The test system of data set [5] is Mus musculus. As to the kind of experiment: Bioavailability in mouse at 10 mg/kg, ip. The settings on record: in vivo. Type of data set: ADME, organism-based.
A short description of data set [6]: Metabolic stability in human liver microsomes assessed as residual compound at 3 uM preincubated for 2 mins followed by NADPH addition measured after 10 mins by LC-MS analysis. The data set is classed as ADME. The following applies: read-out: Stability. Background: Liver microsomes are vesicles of endoplasmic reticulum, rich in cytochrome P450 enzymes.
Data set [7] can be described thus: Oral bioavailability in mouse at 10 mg/kg. The data set is classed as ADME, organism-based. The following applies: in vivo.
The nature of data set [8]: Clearance in mouse at 1 mg/kg, iv. The data set is classed as ADME, organism-based. The settings on record: in vivo.
Data set [9] concerns the target T2, Pancreatic triacylglycerol lipase (Sus scrofa) (UniProt P00591).
T2 sequence (whole entry): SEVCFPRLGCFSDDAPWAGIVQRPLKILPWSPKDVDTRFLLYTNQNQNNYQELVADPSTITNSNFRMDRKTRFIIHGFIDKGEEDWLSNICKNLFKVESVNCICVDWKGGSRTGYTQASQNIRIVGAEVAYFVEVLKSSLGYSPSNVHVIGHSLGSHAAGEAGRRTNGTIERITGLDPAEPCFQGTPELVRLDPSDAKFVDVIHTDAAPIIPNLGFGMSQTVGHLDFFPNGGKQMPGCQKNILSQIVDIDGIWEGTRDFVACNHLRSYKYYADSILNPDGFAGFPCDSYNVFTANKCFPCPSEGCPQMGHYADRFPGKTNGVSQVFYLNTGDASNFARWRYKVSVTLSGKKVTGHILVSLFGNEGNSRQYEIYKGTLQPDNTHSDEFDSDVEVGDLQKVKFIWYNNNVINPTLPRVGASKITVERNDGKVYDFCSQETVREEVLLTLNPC
As to the kind of experiment: Inhibition of porcine pancreatic lipase at 30 uM.

A short description of data set [10]: Volume of distribution at steady state in mouse at 1 mg/kg, iv. Type of data set: ADME, organism-based. The following applies: in vivo, read-out: Vdss.
Data set [11] in a line: Half life in mouse at 10 mg/kg, po. The following applies: in vivo. Type of data set: ADME, organism-based.
Data set [12] is described as follows: AUC(infinity) in mouse at 10 mg/kg, po. Type of data set: ADME, organism-based. Also on record: dose 10 mg/kg, route oral, time infinity. The following applies: in vivo.
Data set [13] deals with T3, Nuclear receptor subfamily 1 group I member 2 (Homo sapiens, UniProt O75469).
T3 sequence (O75469 whole entry): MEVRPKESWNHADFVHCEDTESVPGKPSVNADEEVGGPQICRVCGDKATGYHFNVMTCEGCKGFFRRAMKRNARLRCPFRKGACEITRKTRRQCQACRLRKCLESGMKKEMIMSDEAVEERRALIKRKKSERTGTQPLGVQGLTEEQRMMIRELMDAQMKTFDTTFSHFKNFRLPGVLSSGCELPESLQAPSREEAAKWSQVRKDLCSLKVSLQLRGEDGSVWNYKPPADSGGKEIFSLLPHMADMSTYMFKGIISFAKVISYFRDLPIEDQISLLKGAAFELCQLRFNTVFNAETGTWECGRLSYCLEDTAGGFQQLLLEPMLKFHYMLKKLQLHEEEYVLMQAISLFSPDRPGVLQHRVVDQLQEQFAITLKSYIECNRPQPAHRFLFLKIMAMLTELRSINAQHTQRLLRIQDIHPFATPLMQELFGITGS
As to the kind of experiment: Transactivation of human PXR expressed in human HepG2 cells after […] by luciferase reporter gene assay. Type of data set: ADME, cell-based.

Data set [14] is described as follows: Cmax in mouse at 10 mg/kg, ip. Type of data set: ADME, organism-based. Also on record: dose 10 mg/kg, route intraperitoneal. The following applies: in vivo.
Data set [15] can be described thus: Metabolic stability in mouse liver microsomes assessed as residual compound at 3 uM preincubated for 2 mins followed by NADPH addition measured after 10 mins by LC-MS analysis. Type of data set: ADME. The following applies: read-out: Stability.
Data set [16] is described as follows: Half life in mouse at 10 mg/kg, ip. The data set is classed as ADME, organism-based. The following applies: in vivo.
Data set [17] is described as follows: Tmax in mouse at 10 mg/kg, po. Type of data set: ADME, organism-based. The following applies: in vivo.
Data set [18] is described as follows: Cmax in mouse at 1 mg/kg, iv. The settings on record: in vivo. The data set is classed as ADME, organism-based. Further details: dose 1 mg/kg, route intravenous.
In data set [19] the target is T4, Diacylglycerol lipase-beta (Homo sapiens, UniProt Q8NCG7).
T4 sequence (Q8NCG7 whole entry): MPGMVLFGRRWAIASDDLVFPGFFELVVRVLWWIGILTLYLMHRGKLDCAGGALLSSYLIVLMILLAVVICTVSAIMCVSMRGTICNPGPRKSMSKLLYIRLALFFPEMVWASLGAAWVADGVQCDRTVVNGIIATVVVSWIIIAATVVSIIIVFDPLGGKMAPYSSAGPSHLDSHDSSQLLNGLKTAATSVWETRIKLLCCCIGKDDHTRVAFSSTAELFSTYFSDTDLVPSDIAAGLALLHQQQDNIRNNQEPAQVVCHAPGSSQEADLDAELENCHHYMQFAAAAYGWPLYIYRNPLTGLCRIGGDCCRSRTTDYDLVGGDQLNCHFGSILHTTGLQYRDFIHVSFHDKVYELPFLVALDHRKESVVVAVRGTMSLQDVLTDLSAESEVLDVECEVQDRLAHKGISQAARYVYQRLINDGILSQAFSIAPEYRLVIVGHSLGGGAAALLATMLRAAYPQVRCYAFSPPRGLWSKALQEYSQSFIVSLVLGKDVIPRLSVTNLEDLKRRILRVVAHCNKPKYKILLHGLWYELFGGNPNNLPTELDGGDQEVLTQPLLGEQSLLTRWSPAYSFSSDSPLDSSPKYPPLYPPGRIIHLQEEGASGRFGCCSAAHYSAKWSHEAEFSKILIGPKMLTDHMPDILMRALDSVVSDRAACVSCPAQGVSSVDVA
As to the kind of experiment: Inhibition of DAGLbeta (unknown origin).

Data set [20] is described as follows: Metabolic stability in rat liver microsomes assessed as residual compound at 3 uM preincubated for 2 mins followed by NADPH addition measured after 10 mins by LC-MS analysis. The data set is classed as ADME. The following applies: read-out: Stability.
For data set [21], the system named is Mus musculus. As to the kind of experiment: AUC(infinity) in mouse at 1 mg/kg, iv. The following applies: in vivo. Further details: dose 1 mg/kg, route intravenous, time infinity. The data set is classed as ADME, organism-based.
Data set [22] is described as follows: Cmax in mouse at 10 mg/kg, po. Further details: dose 10 mg/kg, route oral. The settings on record: in vivo. The data set is classed as ADME, organism-based.

Consider one compound from ChEMBL document CHEMBL3763072, “Structure activity relationship studies on chemically non-reactive glycine sulfonamide inhibitors of diacylglycerol lipase” (Bioorg Med Chem, 2016).

Activity calls are given as the source filed them.

With `CC1(C)CCc2cc(S(=O)(=O)N(CC(=O)O)C3(c4cccc(-c5cc(Cl)cc(Cl)c5)c4)CCC3)ccc2O1`, the figures for the Tmax in data set [1] and in data set [17] were 37.8 min and 30 min, respectively. For the same compound, the inhibition result in [2] and in [9] was “inactive” throughout. Besides, the AUC (commonly the area under the concentration-time curve, a measure of exposure) in data set [3] is 5.784 µM·h; in data set [21], 0.173 µM·h. The half-life (usually the time needed for the level to fall by half in the phase considered) in [4] was 34.8 min; in data set [11], 59.4 min; in data set [16], 79.8 min. In addition, the F in data set [5] amounted to 100%. Further, the remaining at 10 min, 3 µM in [6] stood at 79%; in data set [15] it was 77%; in data set [20] it was 70%. Also, the bioavailability (commonly the share of a dose that reaches the circulation, judged against a reference dose that is usually intravenous) in data set [7] was 88%. The clearance (usually a measure of how efficiently the substance is removed, as volume per time) in [8] amounted to 169 mL/min/kg. The Vd in data set [10] worked out at 7.42 L/kg. Moreover, the AUC(0-inf) (in general, total exposure, with the tail of the curve extrapolated) in [12] came to 1.52 µM·h. In data set [13], this compound came in with an Activity of 140%. In addition, the results for the Cmax in data set [14], in [18] and in [22] were 2860 nM, 274 nM and 941 nM, respectively. Moreover, in [19], the IC50 (as a rule, the concentration at which inhibition is half-maximal) came to 40 nM.
